pIC50: −log10 of the molar value. Like-named read-outs stand apart in the source and are kept apart here.
How the values were obtained:
TNF-α [1] = experiment: In-vitro whole cell assay for TNF-α inhibition (LPS-stimulated PBMC, ELISA); assay type: cell-based; conditions: TNF-α by ELISA
Experimental: Freshly obtained venous blood was anticoagulated with heparin, diluted with an equal volume of phosphate buffered saline (“PBS”) and placed in a sterile tube or other container. Aliquots (30 mL) of this mixture were transferred to centrifuge tubes, which were underlaid with Ficoll-Hypaque (15 mL). The prepared tubes were centrifuged at 400×g, without braking, for 30 min at room temperature. Approximately ½ to ⅔ of the platelet layer above the mononuclear cell band was removed with a pipette. The majority of the mononuclear cell layer was carefully removed using a pipette and these PBMC's were diluted with PBS and spun at 600×g for 15 min. The resulting PBMC's were washed with another portion of PBS and spun at 400×g for 10 min at room temperature. The recovered pellets were diluted in low endotoxin RPMI/1% FCS culture medium, and gave a cell concentration of 0.5-2.0×10^6 PMBC/ mL. A small volume of the suspension was removed for counting on a hemocytometer and the remaining preparation was centrifuged at 200×g for 15 min at room temperature. The recovered pelleted PMBC's were resuspended in RPMI/1% FCS to a concentration of 1.67×10^6/mL.
To run the assay, the PBMC suspension (180 μL) was transferred to duplicate wells of a 96-well flat-bottom microtiter plate and incubated for 1 h at 37° C. A solution of test compound (10 μL: prepared at 20× the desired final concentration) was added to each well and the plate was incubated for 1 h at 37° C. A solution (10 μL) of LPS in RPMI/1% FCS (200 ng/mL) was added and the wells were incubated overnight at 37° C. The supernate (100 μL) was removed from each well and diluted with RPMI/1% FCS (400 μL). The samples were analyzed for TNF-α using a commercial ELISA kit (Genzyme).

P38 = P38 (Homo sapiens, UniProt Q16539); experiment: P38 cell, 1 μM LJ; assay type: cell-based; parameters: unit not given here
P38, sequence (Q16539 whole entry): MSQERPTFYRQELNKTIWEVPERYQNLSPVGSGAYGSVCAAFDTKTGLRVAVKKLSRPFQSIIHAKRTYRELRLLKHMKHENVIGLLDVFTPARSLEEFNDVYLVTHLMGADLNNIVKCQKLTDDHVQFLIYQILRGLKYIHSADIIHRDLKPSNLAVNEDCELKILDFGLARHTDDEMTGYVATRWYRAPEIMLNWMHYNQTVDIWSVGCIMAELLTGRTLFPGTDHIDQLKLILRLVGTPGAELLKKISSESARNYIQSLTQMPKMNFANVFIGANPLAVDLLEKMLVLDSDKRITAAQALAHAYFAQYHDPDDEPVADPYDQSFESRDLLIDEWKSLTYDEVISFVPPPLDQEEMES

TNF-α [2] = experiment: In vivo rodent assay for inhibition of LPS-induced TNF-α production; parameters: species or system Mice (BALB/cJ females); conditions: Mus musculus, po, 10 mg/kg oral
Experimental: Mice (BALB/cJ females, Jackson Laboratories) or rats (Lewis males, Charles River) were fasted for 30 min. The animals were dosed orally on a mg/kg basis at a range of times prior to being injected intraperitoneally with LPS at 1 mg/kg and returned to their cages for 1 h. Animals were anesthetized by CO2, exsanguinated by cardiac puncture and whole blood collected (0.1-0.7 mL). The blood was allowed to clot and serum was transferred to a centrifuge tube. This sample was centrifuged, and serum was collected, aliquoted and frozen at −80° C. Samples were tested by commercial ELISA's for TNF-α (Endogen for mouse TNF-α and Biosource for rat TNF-α).

[3] = 0.5 h, 0.5 h, read-out: Mouse 10 mg/kg % inhib 0.5 h
[4] = 2 h, 2 h, read-out: Mouse 10 mg/kg % inhib 2 h

| Compound | pIC50 (TNF-α [1]) | P38 cell 1 μM LJ (P38) | inhibition in vivo at 10 mg/kg (TNF-α [2]; [3]) [%] | inhibition in vivo at 10 mg/kg (TNF-α [2]; [4]) [%] |
| --- | --- | --- | --- | --- |
| COC(=O)c1c(-c2ccc(F)cc2)c(-c2ccncc2)c(N2CCN(C(=O)OC(C)(C)C)CC2)n1C [Cpd 8a] | 5.37 | 28 |  |  |
| COC(=O)c1c(-c2ccc(F)cc2)c(-c2ccncc2)c(N)n1C [Cpd 9, 5-Amino-3-(4-fluorophenyl)-1-methyl-4-(4-pyridinyl)-1H-pyrrole-2-carboxylic acid methyl ester] | 7.29 | 12 | 53.9 |  |
| COC(=O)c1c(-c2ccc(F)cc2)c(-c2ccncc2)c(N2CCN(C)CC2)n1C [Cpd 10, 3-(4-Fluorophenyl)-1-methyl-5-(4-methyl-1-piperazinyl)-4-(4-pyridinyl)-1H-pyrrole-2-carboxylic acid methyl ester] | 7.02 | 1 | 89 |  |
| COC(=O)c1c(-c2ccc(F)cc2)c(-c2ccncc2)cn1CCN1CCOCC1 [Cpd 60] | 5.00 | 1 |  |  |
| Fc1ccc(-c2c[nH]c(CN3CCc4ccccc4C3)c2-c2ccncc2)cc1 [Cpd 72] | 7.40 | 32 | 63 |  |
| CN(Cc1ccccc1)Cc1[nH]cc(-c2ccc(F)cc2)c1-c1ccncc1 [Cpd 73] | 7.04 | 78 | 37 |  |
| CCOC(=O)c1[nH]cc(-c2ccncc2)c1-c1ccc(C)cc1 [Cpd 75] | 6.87 | 42 |  |  |
| CNC(=O)c1c(-c2ccc(F)cc2)c(-c2ccncc2)cn1C [Cpd 76] | 5.83 | 18 | 67 | 78 |
| CCOC(=O)c1c(-c2ccc(Br)cc2)c(-c2ccncc2)cn1C [Cpd 77] | 6.68 | 62 |  |  |
| CCOC(=O)c1c(-c2ccc(C)cc2)c(-c2ccncc2)c(Br)n1C [Cpd 79] | 6.13 | 9 | -76 |  |
| COC(=O)c1c(-c2ccc(F)cc2)c(-c2ccncc2)c(N2CCCC2)n1C [Cpd 80] | 7.77 | 32 | -38 |  |
| COC(=O)c1c(-c2ccc(F)cc2)c(-c2ccncc2)c(N2CCOCC2)n1C [Cpd 81] | 7.33 | 12 | -41 |  |
| Cn1c(Br)c(-c2ccncc2)c(-c2ccc(F)cc2)c1C(=O)OC(C)(C)C [Cpd 82] | 5.72 | 8 | -7 |  |
| CNC(=O)c1c(-c2ccc(F)cc2)c(-c2ccncc2)c(Br)n1C [Cpd 84] | 6.27 | 11 | 53 |  |
| CCn1cc(-c2ccncc2)c(-c2ccc(F)cc2)c1C(=O)OC [Cpd 85] | 6.97 | 4 | 53 |  |
| CCOC(=O)c1c(-c2ccc(F)cc2)c(-c2ccncc2)cn1C [Cpd 86] | 6.90 | −2 |  |  |
| CCOC(=O)c1c(-c2ccc(F)cc2)c(-c2ccncc2)c(Br)n1C [Cpd 87] | 7.07 | 4 |  |  |
| CCCNC(=O)c1c(-c2ccc(F)cc2)c(-c2ccncc2)c(N2CCNCC2)n1C [Cpd 88] | 5.00 | 7 |  |  |
| CC(C)NC(=O)c1c(-c2ccc(F)cc2)c(-c2ccncc2)c(N2CCNCC2)n1C [Cpd 89] |  | 22 |  |  |
| CC(C)C(C)NC(=O)c1c(-c2ccc(F)cc2)c(-c2ccncc2)c(N2CCNCC2)n1C (stereo not drawn) [Cpd 90] |  | 15 |  |  |
| CC(=O)c1c(-c2ccc(F)cc2)c(-c2ccncc2)c(N2CCNCC2)n1C [Cpd 91] | 7.40 | 29 | 39 |  |
| CC(=O)c1c(-c2ccc(F)cc2)c(-c2ccncc2)c(N2CCN(C(C)=O)CC2)n1C [Cpd 92] | 7.37 | 6 | 61 | 28 |

| Compound | pIC50 (TNF-α [1]) | P38 cell 1 μM LJ (P38) | inhibition in vivo at 10 mg/kg (TNF-α [2]; [3]) [%] | inhibition in vivo at 10 mg/kg (TNF-α [2]; [4]) [%] |
| --- | --- | --- | --- | --- |
| Cn1c(C(=O)OC(C)(C)C)c(-c2ccc(F)cc2)c(-c2ccncc2)c1N1CCNCC1 [Cpd 94] | 6.38 | 10 | 25 |  |
| CN(C)C(=O)c1c(-c2ccc(F)cc2)c(-c2ccncc2)cn1C [Cpd 95] | 5.86 | 21 | 33 |  |
| CN(C)C(=O)c1c(-c2ccc(F)cc2)c(-c2ccncc2)c(Br)n1C [Cpd 97] | 6.52 | 1 | -41 |  |
| COC(=O)c1c(-c2ccc(F)cc2)c(-c2ccncc2)c(N=C(c2ccccc2)c2ccccc2)n1C [Cpd 98] | 7.28 | −2 | -49 |  |
| Cn1c(C(=O)C2CC2)c(-c2ccc(F)cc2)c(-c2ccncc2)c1N1CCN(C(=O)C2CC2)CC1 [Cpd 107] | 7.44 | 11 |  |  |
| COC(=O)C(=O)c1c(-c2ccc(F)cc2)c(-c2ccncc2)c(N2CCNCC2)n1C [Cpd 108] | 7.55 | 15 | 52 |  |
| Cn1c(Br)c(-c2ccncc2)c(-c2ccc(F)cc2)c1C#N [Cpd 170] | 6.20 |  | 22 |  |
| COCC#Cc1c(-c2ccc(F)cc2)c(-c2ccncc2)c(C(=O)OC)n1C [Cpd 172] | 6.35 |  | -5 |  |
| CN(CCN1CCOCC1)c1c(-c2ccncc2)c(-c2ccc(F)cc2)cn1C [Cpd 173] | 6.93 |  | 65 | -17 |
| COC(=O)c1c(-c2ccncc2)c(-c2ccc(F)cc2)c(C#CCCN2CCOCC2)n1C [Cpd 175] | 7.49 |  |  | -4 |
| C=CC#Cc1c(-c2ccc(F)cc2)c(-c2ccncc2)c(C(=O)OC)n1C [Cpd 176] | 7.47 |  |  | -20 |
| COC(=O)c1c(-c2ccc(F)cc2)c(-c2ccncc2)c(NCc2cccc(OC)c2)n1C [Cpd 177] | 6.39 |  |  | 63 |
| CC(=O)c1c(-c2ccc(F)cc2)c(-c2ccncc2)c(N2CCN(C)CC2)n1C [Cpd 178] | 6.43 |  |  | 40 |
| CCOC(=O)N1CCN(c2c(-c3ccncc3)c(-c3ccc(F)cc3)c(C(=O)OC)n2C)CC1 [Cpd 179] | 7.52 |  |  | 8 |
| CN(CCO)Cc1[nH]cc(-c2ccc(F)cc2)c1-c1ccncc1 [Cpd 180] | 8.52 |  |  | -8 |
| COC(=O)CN1CCN(c2c(-c3ccncc3)c(-c3ccc(F)cc3)c(C(=O)OC)n2C)CC1 [Cpd 181] | 8.30 |  |  | 26 |
| CC(=O)N1CCN(c2c(-c3ccncc3)c(-c3ccc(F)cc3)c(C#N)n2C)CC1 [Cpd 182] | 6.81 |  |  | 81 |
| CN1CCN(c2c(-c3ccncc3)c(-c3ccc(F)cc3)c(C#N)n2C)CC1 [Cpd 183] | 7.10 |  |  | 47 |
| COC(=O)c1c(-c2ccc(F)cc2)c(-c2ccncc2)c(C#CCN2CCN(C)CC2)n1C [Cpd 184] | 8.11 |  |  | 57 |
| Cn1cc(-c2ccncc2)c(-c2ccc(F)cc2)c1CNC(=O)Nc1ccccc1 [Cpd 185] | 7.57 |  |  | 82 |
| Cn1c(C#N)c(-c2ccc(F)cc2)c(-c2ccncc2)c1N1CCNCC1 [Cpd 186] | 7.74 |  |  | 67 |

— US20050043331A1, “Substituted 3-(2,5-disubstituted)pyridyl-4-aryl pyrroles for treating inflammatory diseases” (priority 2002, published 2005)
